Experimental data: patent US12052991B2, “Substituted pyridinyloxybenzenes and salts thereof and use thereof as herbicidal agents” (Bayer Aktiengesellschaft, priority 2018, dated 2024)

Tests used:
Format in all cases: in vivo
[1] = test system: soybean (GLXMA, var. Sultana), wheat (TRZAS, var. Triso) and corn (ZEAMX, var. Aventura); assay: Pre-emergence crop plant compatibility, summary of Table E1; conditions: applied pre-emergence to soybean, wheat and corn at 80 g of active ingredient per hectare; summary in words
Excerpt: Seeds of monocotyledonous and dicotyledonous crop plants were placed in plastic or organic plant pots and covered with soil. The compounds of the invention, formulated in the form of wettable powders (WP) or as emulsion concentrates (EC), were then applied to the surface of the covering soil as aqueous suspension or emulsion with addition of 0.5% additive at a water application rate equivalent to 600 l/ha (converted). After the treatment, the pots were placed in a greenhouse and kept under good growth conditions for the test plants. After about 3 weeks, the effect of the preparations was scored visually in comparison with untreated controls as percentages. For example, 100% activity=the plants have died, 0% activity=like control plants.

[2] = test system: Abutilon theophrasti (ABUTH); assay: Herbicidal pre-emergence action, test D, single sowings (Table D4); conditions: dosage 80 g/ha, scored after about 3 weeks
Excerpt: (§1) Seeds of monocotyledonous and dicotyledonous weed plants were laid out in plastic or organic plant pots (single sowings with one species of mono- or dicotyledonous weed plant per pot) and covered with soil. The compounds of the invention, formulated in the form of wettable powders (WP) or as emulsion concentrates (EC), were then applied to the surface of the covering soil as aqueous suspension or emulsion with addition of 0.5% additive at a water application rate equivalent to 600 l/ha (converted). After the treatment, the pots were placed in a greenhouse and kept under good growth conditions for the test plants. After about 3 weeks, the effect of the preparations was scored visually in comparison with untreated controls as percentages. For example, 100% activity=the plants have died, 0% activity=like control plants. Tables D1 to D8 below show the effects of selected compounds of the general formula (I) according to Table 1 on various harmful plants and an application rate corresponding to 80 g/ha, which were obtained by the experimental procedure mentioned above.

[3] = test system: Amaranthus retroflexus (AMARE); assay: Herbicidal pre-emergence action, test D, single sowings (Table D5); conditions: dosage 80 g/ha, scored after about 3 weeks
Excerpt: as §1

Bassia scoparia (KCHSC) = assay: Herbicidal pre-emergence action, test C (Table C11); conditions: visual scoring vs untreated controls
Outline: (§2)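 In this test, soil-covered weed seeds in sandy loam received a surface application of compound at 1280 or 320 g/ha. Effects were rated visually as percentages compared with untreated controls roughly 3 weeks later.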

[4] = test system: Matricaria inodora (MATIN); assay: Herbicidal pre-emergence action, test D, single sowings (Table D6); conditions: dosage 80 g/ha, scored after about 3 weeks
Excerpt: as §1

[5] = test system: Alopecurus myosuroides (ALOMY); assay: Herbicidal pre-emergence action, test C (Table C9); conditions: visual scoring after about 3 weeks, 100% = plants have died, 0% = like control plants
Outline: as §2

Veronica persica (VERPE) = assay: Herbicidal pre-emergence action, test C (Table C12); conditions: visual scoring vs untreated controls
Outline: as §2

[6] = test system: Alopecurus myosuroides (ALOMY); assay: Herbicidal pre-emergence action, test D, single sowings (Table D1); conditions: 80 g/ha; scored visually after about 3 weeks; 100% = plants have died, 0% = like control plants
Excerpt: as §1

SMILES | crop plant tolerance in comparison with structurally similar pyrimidinyloxybenzenes (US 2016/333000 Ex. Nos. 53 and 144) [1] | Pre-emergence action against Abutilon theophrasti (ABUTH) [2] | Pre-emergence action against Amaranthus retroflexus (AMARE) [3] | Pre-emergence action against Bassia scoparia (KCHSC) (Bassia scoparia (KCHSC); dosage 1280 g/ha) | Pre-emergence action against Matricaria inodora (MATIN) [4] | Pre-emergence action against Alopecurus myosuroides (ALOMY) ([5]; dosage 320 g/ha) | Pre-emergence action against Alopecurus myosuroides (ALOMY) ([5]; dosage 1280 g/ha) | Pre-emergence action against Veronica persica (VERPE) (Veronica persica (VERPE); dosage 320 g/ha) | Pre-emergence action against Veronica persica (VERPE) (Veronica persica (VERPE); dosage 1280 g/ha) | Pre-emergence action against Alopecurus myosuroides (ALOMY) [6] | Pre-emergence action against Bassia scoparia (KCHSC) (Bassia scoparia (KCHSC); dosage 320 g/ha)
Fc1cc(Cl)cnc1Oc1ccccc1-c1cc(C(F)F)no1 [Example 1-36] | significantly improved crop plant tolerance | 100% | 100% | 90% | 100% | 90% | 100% | 100% | 100% | – | –
Cc1cccc(Oc2ncc(Cl)cc2F)c1-c1cc(C(F)F)no1 [Example 1-20] | – | – | – | 90% | – | 90% | 100% | 100% | 100% | – | –
Cc1cccc(Oc2ccc(Cl)cn2)c1-c1cc(C(F)F)no1 [Example 1-18, 5-[2-[(5-Chloro-2-pyridyl)oxy]-6-methylphenyl]-3-(difluoromethyl)isoxazole] | – | – | – | 90% | – | – | 90% | 100% | 100% | – | –
FC(F)c1cc(-c2ccccc2Oc2ccc(Cl)cn2)on1 [Example 1-35] | significantly improved crop plant tolerance | 80% | 100% | 90% | 80% | – | 90% | 100% | 100% | – | –
Fc1cccc(Oc2ccc(Cl)cn2)c1-c1cc(C(F)F)no1 [Example 1-17] | significantly improved crop plant tolerance | 100% | 100% | – | 100% | – | – | – | – | 100% | –
Fc1cccc(Oc2ccc(Br)cn2)c1-c1cc(C(F)F)no1 [Example 1-40] | – | – | – | 100% | – | 100% | 100% | 100% | 100% | – | 100%
Fc1cc(Cl)cnc1Oc1cccc(F)c1-c1cc(C(F)F)no1 [Example 1-19] | significantly improved crop plant tolerance | 100% | 100% | – | 100% | – | – | – | – | 100% | –
